Assay results from ChEMBL document CHEMBL5393444, “Sulfonamide derivatives as ctps1 inhibitors” (2022).

Tests used:
CTP synthase 1 = molecular target: T1, CTP synthase 1 (Homo sapiens, UniProt P17812); experiment: Inhibition of C-terminal FLAG-His8-tagged full length human CTPS1 preincubated for 10 mins followed by substrate addition by ADP-Glo assay
T1 sequence (P17812 whole entry): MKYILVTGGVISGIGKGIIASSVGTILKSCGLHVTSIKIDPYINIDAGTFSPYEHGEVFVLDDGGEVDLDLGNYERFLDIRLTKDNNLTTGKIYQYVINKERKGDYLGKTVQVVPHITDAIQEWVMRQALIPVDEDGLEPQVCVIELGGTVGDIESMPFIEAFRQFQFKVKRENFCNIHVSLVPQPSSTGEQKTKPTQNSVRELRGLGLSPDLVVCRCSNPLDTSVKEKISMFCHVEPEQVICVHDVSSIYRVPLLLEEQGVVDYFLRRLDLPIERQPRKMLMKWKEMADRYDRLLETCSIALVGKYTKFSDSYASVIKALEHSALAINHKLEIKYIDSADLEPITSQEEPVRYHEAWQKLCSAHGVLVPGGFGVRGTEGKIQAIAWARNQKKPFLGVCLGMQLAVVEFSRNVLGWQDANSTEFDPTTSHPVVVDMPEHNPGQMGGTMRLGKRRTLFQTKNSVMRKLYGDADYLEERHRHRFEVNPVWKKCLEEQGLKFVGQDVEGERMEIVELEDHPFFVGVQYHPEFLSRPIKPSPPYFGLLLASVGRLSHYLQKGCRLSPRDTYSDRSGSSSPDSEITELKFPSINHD

Homo sapiens = species on record: Homo sapiens; experiment: Selectivity ratio of IC50 for human CTPS2 to IC50 for human CTPS1 by RapidFire/MS analysis

| IC50 (CTP synthase 1) [nM] | Ratio IC50 (Homo sapiens) | SMILES |
| --- | --- | --- |
| ≤ 100 | > 60 | CCOc1cncc(-c2ccc(C(=O)NCc3ccnc(NS(=O)(=O)C4CC4)n3)cc2)n1 |
| ≤ 100 | > 60 | CCOc1cncc(-c2ccc(NC(=O)C(CC)c3cncc(NS(=O)(=O)C4CC4)n3)nc2)n1 (stereo not given) |
| ≤ 100 | 30 | CCOc1cncc(-c2ccc(NC(=O)C(CC)c3cccc(NS(=O)(=O)C4CC4)n3)nc2)n1 (stereo not given) |
| ≤ 100 | 2 | CCOc1cncc(-c2cnc(NC(=O)C(CC)c3ccnc(NS(=O)(=O)C4CC4)n3)c(C)c2)n1 (stereo not given) |
| ≤ 100 | 2 | CCOc1cncc(-c2ccc(NC(=O)C(C)(C)c3ccnc(NS(=O)(=O)C4CC4)n3)c(F)c2)n1 |
| ≤ 100 | > 60 | CCC(C(=O)Nc1ccc(-c2cncc(OCC(F)(F)F)n2)cc1)c1ccnc(NS(=O)(=O)C2CC2)n1 (stereo not given) |
| ≤ 100 | 30 | CCOc1cncc(-c2ccc(NC(=O)C(CC)c3ccnc(NS(=O)(=O)C4CC4)n3)cc2)n1 (stereo not given) |
| ≤ 100 | 2 | CCC(C(=O)Nc1ccc(-c2cncc(OC)n2)cc1F)c1ccnc(NS(=O)(=O)C2CC2)n1 (stereo not given) |
| ≤ 100 | > 60 | CCOc1cncc(-c2ccc(NC(=O)C3(c4ccnc(NS(=O)(=O)C5CC5)n4)CCCC3)nc2)n1 |
| ≤ 100 | 2 | CCOc1cncc(-c2ccc(NC(=O)C(CC)c3ccnc(NS(=O)(=O)C4CC4)n3)c(C)c2)n1 (stereo not given) |
| ≤ 100 | > 60 | CCOc1cncc(-c2ccc(NC(=O)C(C)(CCOC)c3cncc(NS(=O)(=O)C4CC4)n3)nc2)n1 (stereo not given) |
| ≤ 100 | 30 | CCOc1cncc(-c2ccc(NC(=O)Cc3ccnc(NS(=O)(=O)C4CC4)n3)cc2)n1 |
| ≤ 100 | > 60 | CCC(C(=O)Nc1ccc(-c2cncc(OC)n2)cn1)c1ccnc(NS(=O)(=O)C2CC2)n1 (stereo not given) |
| ≤ 100 | > 60 | CCOc1cncc(-c2ccc(NC(=O)C3(c4ccnc(NS(=O)(=O)CC#N)n4)CCOCC3)nc2)n1 |
| ≤ 100 | > 60 | CCOc1cncc(-c2ccc(NC(=O)C3(c4ccnc(NS(=O)(=O)C5CC5)n4)CCOCC3)nc2)n1 |
| ≤ 100 | 30 | CC(C)Oc1cncc(-c2ccc(NC(=O)Cc3ccnc(NS(=O)(=O)C4CC4)n3)c(F)c2)n1 |
| ≤ 100 | > 60 | CCOc1cncc(-c2ccc(NC(=O)C3(c4ccnc(NS(=O)(=O)C5CC5)n4)CC3)cc2)n1 |
| ≤ 100 | 2 | CCOc1cncc(-c2ccc(NC(=O)C(C)(C)c3ccnc(NS(=O)(=O)C4CC4)n3)c(C#N)c2)n1 |
| ≤ 100 | 30 | CC(C)Oc1cncc(-c2ccc(NC(=O)Cc3ccnc(NS(=O)(=O)C4CC4)n3)cc2)n1 |
| ≤ 100 | > 60 | CCOc1cncc(-c2ccc(C(=O)NC(CC)c3ccnc(NS(=O)(=O)C4CC4)n3)c(F)c2)n1 (stereo not given) |
| ≤ 100 | > 60 | CCOc1cncc(-c2ccc(NC(=O)C3(c4ccnc(NS(=O)(=O)C5CC5)n4)CCC4(CC3)OCCO4)nc2)n1 |
| ≤ 100 | > 60 | CCOc1cncc(-c2ccc(NC(=O)C(CCOC)c3ccnc(NS(=O)(=O)C4CC4)n3)nc2)n1 (stereo not given) |
| ≤ 100 | > 60 | CCOc1cncc(-c2ccc(NC(=O)C3(c4ccnc(NS(=O)(=O)C5CC5)n4)CCC(F)(F)CC3)nc2)n1 |
| ≤ 100 | 2 | CCOc1cncc(-c2ccc(NC(=O)C(C)(C)c3ccnc(NS(=O)(=O)C4CC4)n3)cc2)n1 |
| ≤ 100 | > 60 | CCOc1cncc(-c2ccc(NC(=O)C3(c4ccnc(NS(=O)(=O)C5CC5)n4)CCOCC3)c(F)c2)n1 |
| ≤ 100 | > 60 | CCOc1cncc(-c2ccc(NC(=O)C(CC)c3cncc(NS(=O)(=O)C4CC4)n3)cc2)n1 (stereo not given) |
| ≤ 100 | 30 | CCOc1cncc(-c2cnc(NC(=O)C(CC)c3ccnc(NS(=O)(=O)C4CC4)n3)c(F)c2)n1 (stereo not given) |

| IC50 (CTP synthase 1) [nM] | Ratio IC50 (Homo sapiens) | SMILES |
| --- | --- | --- |
| ≤ 100 | > 60 | CCOc1cncc(-c2ccc(NC(=O)C(C)(C)c3ccnc(NS(=O)(=O)C4CC4)n3)nc2)n1 |
| ≤ 100 | > 60 | CCOc1cncc(-c2ccc(NC(=O)C(CCOC)c3ccnc(NS(=O)(=O)C4CC4)n3)c(F)c2)n1 (stereo not given) |
| ≤ 100 | > 60 | CCC(C(=O)Nc1ccc(-c2cncc(OCC(F)(F)F)n2)cc1F)c1ccnc(NS(=O)(=O)C2CC2)n1 (stereo not given) |
| ≤ 100 | > 60 | CCOc1cncc(-c2ccc(NC(=O)C3(c4ccnc(NS(=O)(=O)C5CC5)n4)CCC(=O)CC3)nc2)n1 |
| ≤ 100 | > 60 | CCOc1cncc(-c2ccc(NC(=O)C3(c4cncc(NS(=O)(=O)C5CC5)n4)CCOCC3)nc2)n1 |
| ≤ 100 | > 60 | CCOc1cncc(-c2ccc(NC(=O)C3(c4ccnc(NS(=O)(=O)C5CC5)n4)CCCC3)cc2)n1 |
| ≤ 100 | 2 | CC(C)Oc1cncc(-c2ccc(NC(=O)C(C)(C)c3ccnc(NS(=O)(=O)C4CC4)n3)c(F)c2)n1 |
|  | 2 | CCC(C(=O)Nc1ncc(-c2cncc(OC)n2)cc1F)c1ccnc(NS(=O)(=O)C2CC2)n1 (stereo not given) |
| ≤ 100 | > 60 | CCOc1cncc(-c2ccc(NC(=O)C(C)(C)c3cncc(NS(=O)(=O)C4CC4)n3)cc2)n1 |
|  | > 60 | CCOc1cncc(-c2ccc(NC(=O)C(F)(CC)c3cncc(NS(=O)(=O)C4CC4)n3)nc2)n1 (stereo in doubt; form 2) |
| ≤ 100 | > 60 | CCOc1cncc(-c2ccc(NC(=O)C(C)(C)c3cncc(NS(=O)(=O)C4CC4)n3)nc2)n1 |
| ≤ 100 | > 60 | CC(C)Oc1cncc(-c2ccc(NC(=O)C(C)(C)c3ccnc(NS(=O)(=O)C4CC4)n3)nc2)n1 |
| ≤ 100 | 2 | CCOc1cncc(-c2ccc(NC(=O)C(CC)c3ccnc(NS(=O)(=O)C4CC4)n3)c(F)c2)n1 (stereo not given) |
|  | 2 | CCOc1cncc(-c2ccc(NC(=O)C(C)(C)c3nc(NS(=O)(=O)C4CC4)ncc3C)cc2)n1 |
| ≤ 100 | > 60 | CCOc1cncc(-c2ccc(NC(=O)C(C)(CC)c3ccnc(NS(=O)(=O)C4CC4)n3)nc2)n1 (stereo not given) |
| ≤ 100 | > 60 | CCOc1cncc(-c2ccc(NC(=O)C(CC)c3ccnc(NS(=O)(=O)C4CC4)n3)nc2)n1 (stereo not given) |
|  | 2 | CC(C)(C(=O)Nc1ccc(-c2cncc(C3CC3)n2)cc1F)c1ccnc(NS(=O)(=O)C2CC2)n1 |
|  | 30 | CCOc1cncc(-c2ccc(NC(=O)C(F)(CC)c3ccnc(NS(=O)(=O)C4CC4)n3)nc2)n1 (stereo in doubt; form 1) |
| ≤ 100 | > 60 | CCC(C(=O)Nc1ccc(-c2cncc(OC(C)C)n2)cn1)c1ccnc(NS(=O)(=O)C2CC2)n1 (stereo not given) |
|  | > 60 | CCOc1cncc(-c2ccc(NC(=O)C3(c4ccnc(NS(=O)(=O)C5CC5)n4)CCC(N(C)C)CC3)nc2)n1 (stereo in doubt; form 2) |
| ≤ 100 | 30 | CCOc1cncc(-c2ccc(NC(=O)C(CCOC)c3ccnc(NS(=O)(=O)C4CC4)n3)cc2)n1 (stereo not given) |
| ≤ 100 | 2 | CCOc1cncc(-c2ccc(NC(=O)C(OC)c3ccnc(NS(=O)(=O)C4CC4)n3)cc2)n1 (stereo not given) |
| ≤ 100 | 30 | CCC(C(=O)Nc1ccc(-c2cncc(C(F)(F)F)n2)cn1)c1ccnc(NS(=O)(=O)C2CC2)n1 (stereo not given) |
| ≤ 100 | > 60 | CCOc1cncc(-c2ccc(NC(=O)C3(c4ccnc(NS(=O)(=O)C5CC5)n4)CCN(S(C)(=O)=O)CC3)nc2)n1 |
|  | 2 | CCOc1cncc(-c2ccc(NC(=O)C3(c4ccnc(NS(=O)(=O)C5CC5)n4)CCC(O)CC3)nc2)n1 (single isomer, unassigned) |
|  | 2 | CCC(C(=O)Nc1ccc(-c2cncc(Cl)c2)cc1)c1ccnc(NS(=O)(=O)C2CC2)n1 (stereo not given) |
| ≤ 100 | > 60 | CCOc1cncc(-c2ccc(NC(=O)C(F)(CC)c3ccnc(NS(C)(=O)=O)n3)nc2)n1 (stereo not given) |
